The text below walks through data of patent US11834414B2, “1-methyl-4-[(4-phenylphenyl)sulfonylmethyl]cyclohexyanol and 1-methyl-4-[[4-(2-pyridyl)phenyl]sulfonylmethyl]cyclohexanol compounds and their therapeutic use” (Modern Biosciences Limited, priority 2018, dated 2023).

The term IC50 denotes the concentration that gives 50% inhibition. What is called solubility is the concentration that dissolves in the medium under given conditions.

A short description of data set [1]: Human hepatocyte stability. In kind it is in vitro ADME. The conditions noted are these: human, pooled human hepatocytes, human hepatocytes, 1 μM, 60 minute incubation; for hepatocyte CLint at 1 μM: read-out: Human Clint (uL/min/million cells); for half-life at 1 μM: read-out: Human t1/2. The method, then:
(§1) Metabolic stability of test compounds was measured by determination of the rate of disappearance of the compound when incubated in the presence of rat or human hepatocytes, a primary source of the most important enzymes (cytochrome P450s) involved in drug metabolism. Study of drug stability in the presence of primary hepatocytes is accepted as a valuable model permitting rapid prediction of in vivo drug stability.
(§2) Rat or human hepatocytes were obtained from a commercial source and viability was assessed using a trypan blue solution prior to use. Test compounds (final concentration 1 μM, 0.1% DMSO, 0.9% acetonitrile) or a marker (diclofenac or diltiazem, final assay concentration 1 μM, 0.1% DMSO, 0.9% acetonitrile) were incubated with pooled hepatocytes for a 60 minute period and samples removed at up to 6 time points and analysed by LC-MS/MS for the presence/amount of test compounds.
(§3) Each compound was incubated for 0, 5, 15, 30, 45, or 60 minutes. The reactions were stopped by the addition of methanol containing an internal standard (1 μM Tolbutamide) at the appropriate time points, mixed and placed at −20° C. for ≥1 hour to quench and allow protein to precipitate. All samples were centrifuged (2500×g, 20 minutes, 4° C.). The aliquots were analysed using LC-MS/MS. Reactions were performed in duplicate at 37° C.
(§4) Data were processed, and the results plotted as In(concentration) vs. time. The elimination rate constant (slope of the regression line, k) was calculated using the following formula, where C(t) is the concentration at time t and C(0) is the starting concentration:
(§5) The half-life (t1/2) was calculated using the following formula: […]
(§6) The intrinsic clearance (CIint) was calculated using the following formula, where [cell] is the hepatocyte concentration in the assay: […]

Data set [2] relates to Thp1 human monocytic cells. Kind of data set: Thp1 Monocyte ATP Production Assay. In kind it is cell-based. The conditions noted are these: Homo sapiens, THP-1, 24 h, Thp1 cells, 24 hour incubation, ATPLite; 9-point range 10 μM to 10 nM, mean of 2 independent experiments. The method, then: In vitro potency of test compounds was determined by incubation with Thp1 human monocytic cells and subsequent determination of Adenosine TriPhosphate (ATP) levels using firefly luciferase.
ATP is present in all metabolically active cells. When cells lose integrity, their ability to synthesise ATP is rapidly lost. […] See, e.g., Kang et al., 2015; Jiang et al., 2013. Levels of ATP can be monitored using a system based on firefly (Photinus pyralis) luciferase (see, e.g., Auld et al., 2009) using commercially available kits. A system known as
ATPlite™ was using to measure effects of the test compounds on cellular viability in vitro. This one-step assay system is an adenosine triphosphate (ATP) monitoring system based on the production of light caused by the reaction of ATP from the cells with added luciferase and D-luciferin, as illustrated in the reaction scheme below:
The emitted light is proportional to the ATP concentration.
Thp1 cells were plated at 112500 cells per well in 125 μL RPMI-1640 (no glucose) with 1% FBS in 96-well plates. Test compounds were prepared as 100 mM solutions in DMSO. These stock solutions were diluted in DMSO and then diluted 1000× in culture medium (RPMI) before being added directly to the wells so as to give the desired final compound concentration. After a 24 hour incubation at 37° C./5% CO2, ATPLite™ (Perkin Elmer) was added to each well (1:10 v/v, 10 μL). The plate was then incubated at room temperature for 5 minutes and the emitted light was quantified on Viewlux with a measurement time of 0.3 seconds and binning 4×4.
The average results for each test compound were expressed as a percent (%) of the average control value reflecting cell viability. The average values across the concentrations tested were then plotted and the IC50 for was calculated by fitting the data to a 4-parameter IC50 equation using software from Graf it (Erithacus Software). Each experiment was repeated twice and the data are presented as the mean IC50 from both experiments.

A short description of data set [3]: Rat hepatocyte stability. It counts as in vitro ADME. The conditions noted are these: rat, pooled rat hepatocytes, 60 minute incubation; for hepatocyte CLint at 1 μM: read-out: Rat Clint (μL/min/million cells); for half-life at 1 μM: read-out: Rat t1/2. The method, then: as §1, §2, §3, §4, §5, §6
A short description of data set [4]: Aqueous solubility in FaSSIF. It counts as physicochemical. The conditions noted are these: kinetic from dmso stock, pH 6.5, three replicates. The procedure:
Aqueous solubility was measured by equilibration of compounds with fasted state simulated intestinal fluid (FaSSIF) and quantified spectrophotometrically.
Preparation of blank FaSSIF: 0.21 g of sodium hydroxide (NaOH) pellets, 1.97 g of dihydrogen sodium phosphate (NaH2PO4.2H2O) and 3.09 g of sodium chloride (NaCl) were dissolved in 400 mL of deionised water. The pH was adjusted to 6.5 using 1 M hydrochloric acid and further deionised water added to a final volume of 500 mL.
Preparation of FaSSIF: 0.056 g of SIF Powder (containing sodium taurocholate and lecithin) (Phares AG) was dissolved in 25 mL of blank FaSSIF and stirred until the powder was completely dissolved. The solution was allowed to stand for 2 hours during which it became opalescent; it was used within 24 hours. The final solution composition was characterised as follows: • Sodium taurocholate: 3 mM • Lecithin: 0.75 mM • Osmolarity: 270±10 mOsmol • pH: 6.5
The optical density was measured at the end of the incubation period for test compounds and a reference used to determine solubility. In brief, two samples were prepared for each determination: a reference sample consisting of a stock solution of test compound in DMSO diluted in system solution (a phosphate free, low absorption buffer) and propanol; and a test sample (prepared in triplicate) consisting of 0.5 mL FaSSIF spiked with test compound at 0.2 mM. Each sample was incubated at room temperature for 16 hours with constant shaking at 250 rpm. At the end of the incubation period, 0.3 mL of each sample was filtered through a pION filter plate (PION, Woburn MA), diluted 1:1 with propanol and scanned using UV spectrophotometry at λmax ([…]) using a Spectra Max Plus—Version 2.1000 (Molecular Devices, Sunnyvale, CA), with pSOL Explorer solubility determination software (pION, Woburn, MA).
FaSSIF solubility was calculated using the following formula:
[formula] • wherein: • “OD” is the optical density; • “Cr” is the concentration of the reference (33.4 μM); and • “molecular weight” is for the test compound (e.g., 381.44 for ABD735).

A short description of data set [5]: Metabolite identification in rats. It counts as in vivo, Han Wistar rats. The conditions noted are these: rat, 1 mg/kg intravenous. The procedure:
The formation of metabolites in rats was assessed to determine the propensity of the compounds to form a biaryl metabolite.
The corresponding sulfonamide compounds (for example, reference compound HMC-C-01-A) give rise to a sulphonamide metabolite which is persistent and has a long half-life. In addition, the biaryl sulphonamide metabolite acts as an inducer of metabolism in rats, which may complicate the assessment of toxicity in rodents. Therefore, the lower the propensity to form a biaryl sulphonamide metabolite, the greater the potential suitability of the compound for development for human use.
Plasma samples from Han Wistar rats, aged 8-12 weeks, were collected from animals dosed with test compound. Test compounds at a dose of 1 mg/kg were administered intravenously as a solution in 5% NMP, 5% Solutol HS, and 90% normal saline. Animals were given free access to food throughout the study. Blood samples were taken under light isoflurane anaesthesia at 12 time points following an intravenous dose (0.033, 0.1, 0.167, 0.25, 0.5, 1, 2, 4, 6, 8, 12, and 24 hours). The blood samples were collected from a set of three rats at each time point in labelled micro centrifuge tube containing K2EDTA as anticoagulant. Plasma samples were separated by centrifugation of whole blood.
All samples were processed for analysis by protein precipitation using acetonitrile and analysed with a fit-for-purpose LC-MS/MS method.
At the completion of the study, the results were expressed as detection of the metabolite and time course of formation.

The target in data set [6] is CYP2D6 (Homo sapiens (Human), UniProt P10635). Kind of data set: Human Cytochrome P450 Inhibition Assay (Bactosomes). It counts as in vitro ADME. The conditions noted are these: recombinant Bactosomes, 10 minutes, 37° C.
Sequence of CYP2D6 (P10635 whole entry): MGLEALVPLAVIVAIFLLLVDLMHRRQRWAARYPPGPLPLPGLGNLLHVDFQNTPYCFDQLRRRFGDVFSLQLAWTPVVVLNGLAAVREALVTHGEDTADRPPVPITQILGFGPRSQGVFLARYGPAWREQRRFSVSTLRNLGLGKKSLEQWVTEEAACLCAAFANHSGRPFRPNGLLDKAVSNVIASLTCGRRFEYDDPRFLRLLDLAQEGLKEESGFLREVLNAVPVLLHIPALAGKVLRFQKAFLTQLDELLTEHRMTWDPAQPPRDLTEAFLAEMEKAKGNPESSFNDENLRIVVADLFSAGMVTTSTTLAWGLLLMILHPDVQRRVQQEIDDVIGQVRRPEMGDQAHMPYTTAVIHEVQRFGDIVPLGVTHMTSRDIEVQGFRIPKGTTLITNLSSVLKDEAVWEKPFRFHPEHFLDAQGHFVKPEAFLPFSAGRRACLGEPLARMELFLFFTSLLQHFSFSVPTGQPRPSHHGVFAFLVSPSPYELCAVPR
Data set [7] deals with CYP2C9 (Homo sapiens (Human), UniProt P11712). The data set is described as above. It counts as in vitro ADME. The conditions noted are these: recombinant Bactosomes, 10 minutes, 37° C.
Sequence of CYP2C9 (P11712 whole entry): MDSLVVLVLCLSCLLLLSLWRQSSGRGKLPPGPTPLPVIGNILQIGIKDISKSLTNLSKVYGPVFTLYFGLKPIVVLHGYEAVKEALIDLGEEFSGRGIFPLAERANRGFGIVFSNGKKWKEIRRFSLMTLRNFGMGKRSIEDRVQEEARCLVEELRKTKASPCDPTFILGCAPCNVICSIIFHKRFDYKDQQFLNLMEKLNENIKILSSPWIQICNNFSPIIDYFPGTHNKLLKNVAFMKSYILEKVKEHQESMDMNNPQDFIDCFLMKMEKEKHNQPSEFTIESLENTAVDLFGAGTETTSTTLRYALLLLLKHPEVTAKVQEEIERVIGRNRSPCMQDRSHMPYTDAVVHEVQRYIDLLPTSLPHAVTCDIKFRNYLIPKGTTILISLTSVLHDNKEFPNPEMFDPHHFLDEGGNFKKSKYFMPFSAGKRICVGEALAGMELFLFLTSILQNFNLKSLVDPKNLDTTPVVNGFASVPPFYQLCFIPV
Data set [8] has as its target CYP2C19 (Homo sapiens (Human), UniProt P33261). The description is as above. In kind it is in vitro ADME. The conditions noted are these: recombinant Bactosomes, 10 minutes, 37° C.
Data set [9] deals with CYP3A4 (Homo sapiens (Human), UniProt P08684). The description is as above. In kind it is in vitro ADME. The conditions noted are these: recombinant Bactosomes, 10 minutes, 37° C.
Sequence of CYP3A4 (P08684 whole entry): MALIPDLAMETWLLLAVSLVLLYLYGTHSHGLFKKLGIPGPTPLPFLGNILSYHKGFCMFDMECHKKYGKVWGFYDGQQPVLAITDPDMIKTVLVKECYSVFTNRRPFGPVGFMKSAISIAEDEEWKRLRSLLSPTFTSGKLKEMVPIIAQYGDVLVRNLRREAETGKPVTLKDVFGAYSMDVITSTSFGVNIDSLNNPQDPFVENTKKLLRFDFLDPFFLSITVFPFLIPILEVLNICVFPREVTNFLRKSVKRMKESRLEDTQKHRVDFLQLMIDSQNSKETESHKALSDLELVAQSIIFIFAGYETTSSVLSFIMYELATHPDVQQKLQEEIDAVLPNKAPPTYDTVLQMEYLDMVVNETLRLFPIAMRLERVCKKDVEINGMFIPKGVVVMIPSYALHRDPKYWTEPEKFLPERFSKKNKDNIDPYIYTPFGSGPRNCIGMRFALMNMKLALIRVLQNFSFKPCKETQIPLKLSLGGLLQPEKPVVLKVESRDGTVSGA
For data set [10], the target named is CYP1A2 (Homo sapiens (Human), UniProt P05177). The conditions noted are these: recombinant enzyme.
Sequence of CYP1A2 (P05177 whole entry): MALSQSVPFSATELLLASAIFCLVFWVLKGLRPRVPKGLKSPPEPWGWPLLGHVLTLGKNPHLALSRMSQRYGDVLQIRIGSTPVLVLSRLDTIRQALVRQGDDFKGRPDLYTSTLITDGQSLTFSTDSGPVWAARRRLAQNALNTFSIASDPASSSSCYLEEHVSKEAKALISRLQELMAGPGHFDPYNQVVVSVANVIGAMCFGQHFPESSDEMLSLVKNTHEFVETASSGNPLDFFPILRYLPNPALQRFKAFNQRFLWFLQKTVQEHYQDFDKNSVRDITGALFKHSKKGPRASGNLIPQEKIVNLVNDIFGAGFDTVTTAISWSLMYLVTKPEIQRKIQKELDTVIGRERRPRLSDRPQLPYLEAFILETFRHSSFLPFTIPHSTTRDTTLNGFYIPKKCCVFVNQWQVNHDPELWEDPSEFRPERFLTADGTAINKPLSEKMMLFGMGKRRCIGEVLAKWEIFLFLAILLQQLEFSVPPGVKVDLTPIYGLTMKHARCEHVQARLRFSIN

The structures appear in SMILES notation. Values after ≈ are worked out from the molar mass of the structure shown. “Also recorded” adds a separate entry of the source. Some results are limits rather than exact numbers.

Sequence of CYP2C19 (P33261 whole entry): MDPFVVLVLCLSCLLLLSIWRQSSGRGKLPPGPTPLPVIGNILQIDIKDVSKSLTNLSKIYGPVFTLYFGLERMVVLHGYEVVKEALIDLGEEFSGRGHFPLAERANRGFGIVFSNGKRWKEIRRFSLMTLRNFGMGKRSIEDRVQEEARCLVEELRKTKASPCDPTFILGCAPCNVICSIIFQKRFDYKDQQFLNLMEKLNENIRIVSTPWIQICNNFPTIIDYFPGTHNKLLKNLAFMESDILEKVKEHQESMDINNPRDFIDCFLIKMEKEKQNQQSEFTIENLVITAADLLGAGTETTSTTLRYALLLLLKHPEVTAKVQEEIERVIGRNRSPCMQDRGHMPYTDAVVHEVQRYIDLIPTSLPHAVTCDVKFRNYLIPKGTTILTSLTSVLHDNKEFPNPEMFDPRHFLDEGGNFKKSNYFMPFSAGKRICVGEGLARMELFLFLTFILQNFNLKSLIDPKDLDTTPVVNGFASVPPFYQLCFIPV

Turning to `C[C@]1(O)CC[C@H](CS(=O)(=O)c2ccc(-c3ccc(F)cc3F)cc2)CC1` [CHMSA-04-B, trans-4-(((2′,4′-difluoro-(1,1′-biphenyl)-4-yl)sulfonyl)methyl)-1-methylcyclohexan-1-ol], in [1], the hepatocyte CLint at 1 μM was less than 3 µL/min/1e6 cells and the half-life at 1 μM is more than 460 min. Also, the 50% inhibitory concentration (IC50) in data set [2] worked out at 2.4 µM. Besides, in data set [3], the hepatocyte CLint at 1 μM was found to be 51.3 µL/min/1e6 cells and the half-life at 1 μM turned out to be 31.4 min. In [4], the solubility at 16 h worked out at 40 µg/mL (≈ 105 µM).

On to `C[C@]1(O)CC[C@H](CS(=O)(=O)c2ccc(-c3ccc(Cl)cc3C#N)cc2)CC1` [CHMSA-10-B, 4-Chloro-4′-((trans-4-hydroxy-4-methylcyclohexyl)methanesulfonyl)-(1,1′-biphenyl)-2-carbonitrile], for which, in [1], the hepatocyte CLint at 1 μM amounted to 5.8 µL/min/1e6 cells and the half-life at 1 μM worked out at 195 min. The same compound displayed a concentration for half-maximal inhibition (IC50) in data set [2] of 1.96 µM. Also, in data set [3], the hepatocyte CLint at 1 μM was 336 µL/min/1e6 cells and the half-life at 1 μM amounted to 4.8 min. Besides, the “time after administration at which metabolite MET-002 was detected” value in data set [5] came out at 0.5 h. In addition, in [5] (up to 24 hours), the “formation of biaryl sulphonamide metabolite (MET-001) in plasma” value was “did not produce any biaryl sulphonamide metabolite” and the “formation of biaryl sulphonic acid metabolite (MET-002) in plasma” value is “detected only transiently; also recorded: only transiently detected”.

For the compound `CC1(O)CCC(NS(=O)(=O)c2ccc(-c3ccc(C#N)cc3Cl)cc2)CC1` (stereo not shown) [HMC-C-09-A, reference compound], the half-inhibitory concentration (IC50) is more than 50 µM in data set [6]; 34 µM in data set [7]; more than 50 µM in data set [8]; 33 µM in [9]; 23 µM in data set [10].

`CC1(O)CCC(NS(=O)(=O)c2ccc(-c3cc(F)c(F)cc3F)cc2)CC1` (stereo not shown) [HMC-C-10-B, reference compound]: the IC50 in [6] is more than 16 µM; in data set [7], 2.4 µM; in data set [8], 8.5 µM; in data set [9], 9.2 µM; in [10], more than 16 µM.

Turning to `CC1(O)CCC(NS(=O)(=O)c2ccc(-c3ccc(Cl)cc3C#N)c(Cl)c2)CC1` (stereo not shown) [HMC-C-11-A, reference compound], the half-inhibitory concentration (IC50) is 9.3 µM in data set [6]; 2.7 µM in data set [7]; 5.1 µM in data set [8]; 12 µM in data set [9]; 11 µM in [10].

With `CC1(O)CCC(NS(=O)(=O)c2ccc(-c3ncc(Cl)cc3C#N)cc2)CC1` (stereo not shown) [HMC-N-05-A, reference compound], the IC50 was more than 50 µM in data set [6]; 27 µM in [7]; more than 50 µM in data set [8]; more than 50 µM in [9]; 36 µM in data set [10].
